Positions of bridges follow the written chain, without caps; N, C: chain ends. No end group written: not given here.
Columns and labels:
HK-2 cells = test: Cisplatin-induced apoptosis in HK-2 cells (Annexin V staining); format: cell-based, human; conditions: 10 uM cisplatin, 500 uM compound, prophylactic or therapeutic
Experimental: Apoptosis and cell viability are quantified using AnnexinV-FITC and propidium iodide staining of HK-2 cells following cisplatin treatment. Immortalized PTEC-derived HK-2 cells (ATCC number CRL-2190) are cultured in serum-free keratinocyte medium (GIBCO number 17005-042) supplemented with EGF and BPE for 48 hours (Ryan et al. 1994 Kidney Int 45:48-57). Medium is aspirated and cells are washed with PBS and incubated in the dark for 15 min at room temperature with 10 μl of media binding agent and 1.25 μl of FITC conjugated AnnexinV. Propidium iodide (10 μl) is added, and samples are analyzed immediately. Quantification of Annexin V-FITC and propidium iodide signals is performed by fluorescence microscopy (Axiovert 135; Carl Zeiss). Phase contrast images are observed using transmitted light. Apoptotic cells show cytoplasmic staining and viable cells remain unstained (FIG. 17).

[1] = system: HK-2 (Human Kidney-2) cells; test: HK-2 cell culture, TNF-alpha induced cytokine and adhesion molecule production (ELISA); format: cell-based; conditions: proximal tubule cells
Experimental: Injury of PTEC by TNF-α and cisplatin (an anti-neoplastic agent) results in the induction of apoptosis, as shown by DNA damage, mitochondial disfunction, BAX […] and caspase activation. BMP-7 protects PTEC/kidney function by inhibiting TNF-α and cisplatin-induced apoptosis in these cells. The immortalized PTEC-derived HK-2 (Human Kidney-2) cells (ATCC number CRL-2190) were grown in serum-free keratinocyte medium (GIBCO number 17005-042) supplemented with epidermal growth factor (EGF: 5 ng/mL) and bovine pituitary extract (40 ug/mL) for 48 hours as described previously (Ryan et al. (1994) Kidney International 45:48-57). Cells were transferred to 24-well plates at a density of 3×10^5 cells per well. After 24 hours, cells were incubated with fresh medium containing TNF-alpha (5 ng/mL) for 20 hours. Controls received medium alone. Then cells were washed twice with fresh culture medium and further incubated with culture medium alone (medium control, and TNF control wells) or TDF-1 at three different concentrations (40, 200 or 1000 ng/mL) or TDFRP compounds at three different concentrations (4, 20 or 100 uM) for sixty hours. During incubation, cells were kept in a 5% CO2 humid atmosphere at 37° C. […] The concentrations of IL-6, IL-8 and sICAM-1 in culture supernatants were measured by specific ELISA (FIG. 14). […]

CYFDDSSNVLCKKYRS (disulfide 1-11 (inferred); not fully specified) [SEQ ID NO:45]
cisplatin-induced apoptosis (HK-2 cells): inhibits | TNF-alpha induced inflammatory response (increase in IL-6) [1]: alleviate
